Assays:
Assay type in all cases: in vivo
Balb/c mice [1] = experiment: Cytokine producing cells in peripheral blood (flow cytometry) after LNIT; details: for IL-5/IFN-γ (CD4) / IL-5/IFN-γ (CD8): peripheral blood
Protocol: (§1) Male Balb/c mice were obtained from the National Laboratory Breeding Research Center in Taiwan and were raised in a specific pathogen-free environment. The mice used were between six and eight weeks of age. Groups of six mice were caged separately according to their treatment.
(§2) Mice were immunized by way of an intraperitoneal (IP) injection of 1 μg/0.1 mL rDp2 emulsified in 4.0 mg/0.062mL aluminum hydroxide Al(OH)3 (Whitehall Lab Ltd. Punchbowl, NSW, Australia) on day 0 and day 7. Following immunization, local nasal immunotherapy (LNIT) was conducted daily from day 14 to day 35 with Dp2 28-40, Dp2 28-40A, FIP alone or FIP mixed with either Dp2 28-40 or Dp2 28-40A (FIP, 50 μg/mouse/day; Dp2 peptide, 1 μg/20 μL) in PBS with 10% glycerol. Normal saline (NS) and irrelevant allergen Bt were used as a negative control. […] On day 28, mice were lightly anesthetized with an IP injection of 60 mg/kg of sodium pentobarbital (Sigma Chemical Co., St Louis, Mo., U.S.A.) and inoculated intratracheally (IT) with 1 μg/50 μL of rDp 2 on day 28 and day 35. Two days subsequent to the second IT inoculation, the mice were sacrificed following the assessment of their pulmonary function (FIG. 1).
Two-color staining methods were used to analyze IFN-γ and IL-5 expression amongst CD4 cells. Leukocytes derived from peripheral blood (PBL) were stimulated with PMA (50 ng/mL), ionomycin (2 μM) and GolgiStop (Cytofix/Cytoperm Plus Pharmingen San Diego, Calif., U.S.A.) for five hours and then washed twice using PBS. The cells were stained with CD4-PerCP, CD8-FITC or IgG1-FITC (PharMingen) at room temperature (RT) for 30 minutes and then washed. Cells were fixed with cytofix/cytoperm at RT for 30 minutes and then stained with anti-cytokine antibody and IgG2a-PE (PharMingen) at RT for 30 minutes and subsequently washed. Both IgG1-FITC and IgG2a-PE were purchased from the same manufacturer as the anticytokine antibodies and the negative controls. Cells were resuspended in 0.5 mL PBS containing 0.1% w/v sodium azide. Mean fluorescence was measured by means of Becton Diskinson flow cytometry (Becton Diskinson, Calif., U.S.A.). A total of 2,000 cells was analyzed for each sample.

Balb/c mice [2] = experiment: Dp2 specific IgG1, IgG2a and IgE in sera (ELISA) after LNIT; details: for Dp2 specific IgG1 production in the sera: Example 1, FIG. 2A; for Dp2 specific IgG1 production in the sera / Dp2 specific IgG2a production in the sera / Dp2 specific IgE production in the sera: compared with NS group; for Dp2 specific IgG2a production in the sera: Example 1, FIG. 2B; for Dp2 specific IgE production in the sera: Example 1, FIG. 2C
Protocol: Male Balb/c mice were obtained from the National Laboratory Breeding Research Center in Taiwan and were raised in a specific pathogen-free environment. The mice used were between six and eight weeks of age. Groups of six mice were caged separately according to their treatment. Recombinant Dermatophoides pteronyssinus group 2 (rDp2) was prepared as previously described(Tsai J J, et al. Int Arch Allergy Immunol 2000;121:205-10). Dp2 28-40 and Dp2 28-40A were obtained from Dr. Jonathan Lamb (Respiratory Medicine Unit, Edinburgh University, Medical School, Edinburgh, UK) (Verhoef A, and Lamb J R. J Immunol 2000;164:6034-6040). FIP was obtained from Dr. Ko Jiunn-Liang (Institute of Toxicology, Chung Shan Medical University, Taichung, R O C) (J L Ko, et al. Eur. J. Biochem. 1995;228:244-249).
as §2
Blood was obtained from the retro-orbital venous plexus at the commencement and end of the experimental program. Serum IgE, IgG1 and IgG2a titers of anti-Dp2 antibodies were determined using an enzyme-linked immunosorbent assay (ELISA) technique. Microtiter plates (Nunc Lab, Ill., U.S.A.) were coated with 100 μL Dp2 overnight at a concentration of 0.5 μg/mL and left in a 4° C. refrigerator. Microtiter-plate nonspecific binding sites were blocked with 3% BSA in PBS for two hours at room temperature. Plates were washed with PBS-Tween-20 (PBST) three times and stored at −70° C. prior to subsequent use. Subsequent to the addition of a 1:5 dilution for IgE, a 1:100 dilution for IgG1 and a 1:5 dilution for IgG2a of mice serum, plates were incubated at 4° C. overnight, and then washed three times before the antibody (Horse radish peroxidase-conjugated goat anti-mouse IgE and IgG2a Ab 1:800, IgG1 Ab 1:2,000 Southern Biotech Assoc, Inc, Birmingham, Ala., U.S.A.) was added. Following a one-hour incubation at 37° C. and three washes with PBST, the enzyme substrate (2,2″-Azino-bis(3-ethylbenzothiazolin-6-sulfonic acid diammonium salt; Bio-Rad, USA) was added. The reaction was stopped using 50 μL 4N H2SO4 after the reaction had been allowed to continue for 15 minutes, following which the optical density was measured at 450nm using a multiscan spectrophotometer (model A-5682, SLT Lab Instruments, Salzburg, Austria). Results were expressed as ELISA units (EU), one EU being defined as the reciprocal value of the serum dilution that elicited an optical density of 1.0. Such a value was selected so as to always lie within the linear component of the dilution curve. To assure reproducibility, a known serum was included with each test as a standard.

Balb/c mice [3] = experiment: Lung pathology (HE stain) after LNIT; details: lung tissue two days after IT with rDp2; for pathology: inflammatory cell infiltration and epithelium damage in the airway: Example 1, FIGS. 6A-6F
Description: FIGS. 6A-6F are photographs showing the pathology of different groups of mice after LNIT. The lung tissues were obtained two days after IT with rDp2. […] (HE stain, ×400).
FIGS. 9A-1˜9F-2 are photographs showing the pathology of different groups of mice following LNIT. The lung tissues were obtained two days subsequent to IT inoculation with rDp2. FIGS. 9A-1, -2: naive mice; FIGS. 9B-1, -2: NS-treated mice; FIGS. 9C-1, -2: DEX-treated mice; FIGS. 9D-1, -2: FIP-fve treated mice; FIGS. 9E-1, -2: Dp2 28-40A+FIP-fve treated mice; and FIGS. 9F-1, -2: Dp2 28-40+FIP-fve treated mice. FIGS. 9A-1, 9B-1, 9C-1, 9D-1, 9E-1 and 9F-1: HE stain, 100×; 9A-2, 9B-2, 9C-2, 9D-2, 9E-2, 9F-2: HE stain, 400×
as §2

Balb/c mice [4] = experiment: IL-5 and IFN-γ levels in sera and BALF (ELISA) after LNIT; details: for IL-5 levels in sera: Example 1, FIG. 3A; for IFN-γ levels in sera: Example 1, FIG. 3B; for IFN-γ / IL-5: Example 2, mean ± SEM, n = 6
Protocol: as §1, §2
IFN-γ and IL-5 were measured using commercially-available ELISA kits, using a specific mouse monoclonal Ab that recognized different epitopes of the cytokine molecules. The lowest detector range was 10 pg/mL. Given that the BALF was considered to be at too diluted a concentration, IL-4 was not measured.

[5] = Example 1, percentage of positive stained cells in the PBMC of six mice
[6] = Example 1, ratio of IL-5 to IFN-γ producing CD4 cells
[7] = Example 1, ratio of IL-5 to IFN-γ producing CD8 cells
[8] = Example 2, percentage of total leukocytes in the peripheral blood of six mice

Molecule: Dp2 28-40A: altered TCR ligand of Dp2 28-40, residues at positions 34 and 36 substituted by alanine; amino acid sequence ID No. 2 (IIHRGKAFALEAV; listed as Dermatophoides pteronyssinus)
- CD4^+ (Balb/c mice [1]; [5]): 51.8 percentage
- CD8^+ (Balb/c mice [1]; [5]): 10.7 percentage
- IFN-γ^+/CD4^+ (Balb/c mice [1]; [5]): 11.4 percentage
- IFN-γ^+/CD8^+ (Balb/c mice [1]; [5]): 5.8 percentage
- IL-5^+/CD4^+ (Balb/c mice [1]; [5]): 11.4 percentage
- IL-5^+/CD8^+ (Balb/c mice [1]; [5]): 3.5 percentage
- IL-5/IFN-γ (CD4) (Balb/c mice [1]; [6]): 1.0
- IL-5/IFN-γ (CD8) (Balb/c mice [1]; [7]): 0.6
- Dp2 specific IgG1 production in the sera (Balb/c mice [2]): significantly reduced
- Dp2 specific IgG2a production in the sera (Balb/c mice [2]): increased
- Dp2 specific IgE production in the sera (Balb/c mice [2]): reduction of IgE was observed only in the group of Dp2 28-40
- pathology: inflammatory cell infiltration and epithelium damage in the airway (Balb/c mice [3]): reductions in airway inflammation
- IL-5 levels in sera (Balb/c mice [4]; compared to NS treated mice): decreased
- IFN-γ levels in sera (Balb/c mice [4]; compared to NS treated mice): Significantly increased

Molecule: Dp2 28-40: Dermatophoides pteronyssinus group 2 (Dp2) epitope peptide, residues 28-40, amino acid sequence ID No. 1 (IIHRGKPFQLEAV; listed as Dermatophoides pteronyssinus)
- CD4^+ (Balb/c mice [1]; [5]): 56.0 percentage
- CD8^+ (Balb/c mice [1]; [5]): 9.8 percentage
- IFN-γ^+/CD4^+ (Balb/c mice [1]; [5]): 27.8 percentage
- IFN-γ^+/CD8^+ (Balb/c mice [1]; [5]): 16.8 percentage
- IL-5^+/CD4^+ (Balb/c mice [1]; [5]): 17.7 percentage
- IL-5^+/CD8^+ (Balb/c mice [1]; [5]): 9.5 percentage
- IL-5/IFN-γ (CD4) (Balb/c mice [1]; [6]): 0.6
- IL-5/IFN-γ (CD8) (Balb/c mice [1]; [7]): 0.6
- Dp2 specific IgG1 production in the sera (Balb/c mice [2]): significantly reduced
- Dp2 specific IgG2a production in the sera (Balb/c mice [2]): increased
- Dp2 specific IgE production in the sera (Balb/c mice [2]): reduction of IgE
- pathology: inflammatory cell infiltration and epithelium damage in the airway (Balb/c mice [3]): reductions in airway inflammation
- IL-5 levels in sera (Balb/c mice [4]; compared to NS treated mice): decreased
- IFN-γ levels in sera (Balb/c mice [4]; compared to NS treated mice): Significantly increased
- IL-5 levels in BALF (Balb/c mice [4]; Example 1, FIG. 3C, compared to NS treated mice): significant reduction
- IFN-γ levels in BALF (Balb/c mice [4]; Example 1, FIG. 3D, compared to NS treated mice): significant increase

B1: FIP: fungal immunomodulatory protein isolated from Flammalina velutipes, amino acid sequence ID No. 3 (protein)
chain: SATSLTFQLAVLVKKIDFDYTPNWGRGTPSSYIDNLTFPKVLTDKKYSYRVVVNGSDLGVESNFAVTPSGGQTINFLQYNKGYGVADTKTIQVFVVIPDTGNSEEYIIAEWKKT
modifications: Flammalina velutipes
- CD4 (Balb/c mice [1]; [8]): 29.1 percentage
- CD8 (Balb/c mice [1]; [8]): 7.0 percentage
- IFN-γ^+/CD4^+ (Balb/c mice [1]; [8]): 13.7 percentage
- IFN-γ^+/CD8^+ (Balb/c mice [1]; [8]): 5.0 percentage
- IL-5^+/CD4^+ (Balb/c mice [1]; [8]): 12.6 percentage
- IL-5^+/CD8^+ (Balb/c mice [1]; [8]): 8.4 percentage
- IL-5/IFN-γ (CD4) (Balb/c mice [1]; Example 2, ratio, CD4 cells): 0.9
- IL-5/IFN-γ (CD8) (Balb/c mice [1]; Example 2, ratio, CD8 cells): 1.7
- Dp2 specific IgG1 production in sera (Balb/c mice [2]; Example 2, FIG. 7A, compared with NS): significantly reduced
- Dp2 specific IgG2a production in sera (Balb/c mice [2]; Example 2, FIG. 7B, compared with NS): significantly increased
- Dp2 specific IgE production in sera (Balb/c mice [2]; Example 2, FIG. 7C, compared with NS): significantly reduced
- pathology: inflammatory-cell infiltration and epithelial damage in the airways (Balb/c mice [3]; Example 2, FIGS. 9A-9F): reduction in the level of airway inflammation
- IFN-γ (Balb/c mice [4]; BALF): 8.3 ± 0.4 pg/mL
- IL-5 (Balb/c mice [4]; BALF): 19.3 ± 1.9 pg/mL
- IFN-γ (Balb/c mice [4]; Sera): 52.0 ± 1.9 pg/mL
- IL-5 (Balb/c mice [4]; Sera): 77.6 ± 1.9 pg/mL
